Patent US5349127A, “Expression of herbicide metabolizing cytochromes P450” (priority 1992, dated 1994)
One block for each compound: values may come before it.

Columns and labels:
[1] = tested on: S. lividans pCAO200SU1-FeS-B#9; test: Sulfonylurea metabolism by washed cell suspension (Examples 6-9); type: in vitro ADME, Streptomyces lividans; conditions: substrate 10010
Method: (§1) Herbicides and their metabolites are measured by HPLC as described by Romesser et al., BBRC 140: 650-659 (1986), herein incorporated by reference, except that 0.1% H3 PO4 is used in both solvents. Chromatographic identity and quantitation of the herbicides and their resulting metabolites is determined by comparing them chromatographically with authentic standard compounds. Identity of the resulting metabolites is also confirmed by UV spectroscopy.
A 100 ml culture of S. griseolus ATCC 11796 in sporulation broth and a 50 ml culture of S. lividans transformed with pCAO400 in YEME broth were prepared and incubated for 24 hours as described. At that time, the S. griseolus culture was split into two 50 ml aliquots into two separate flasks and 25 ml of fresh sporulation broth was added to each and 9 mg of […] was added to one of these cultures to induce cytochrome P450SU1 expression. Fresh YEME broth (25 ml) was added to the S. lividans culture. After an additional 6 hours growth at 30° C., the cells in each culture were harvested as described above, washed twice with MOPS (50 mM, pH 7.2) and recentrifuged. The cell pellets were resuspended in four cell volumes of MOPS (50 mM, pH 7.2) containing 0.2% glucose and about 100 μg/ml of 10004. These cell suspensions were incubated at 30° C. with shaking and aliqouts were taken at 2 and 5.5 hours. The supernatant of each aliquot was analyzed by HPLC and the concentrations of the sulfonylurea compound 10004 and its metabolite 10005 were determined.
S. lividans transformed respectively with pCAO200SU1-FeS-B#9, pCAO200SU#112and pCAO200 were cultured for 36 hours in 400 ml of YEME broth at 30° C. S. griseolus ATCC 11796 was similarly cultured in 400 ml of sporulation broth. Six hours before harvesting the cells, 150 ml of fresh YEME broth was added to the S. lividans cells, and the S. griseolus cells were split into two 200 ml cultures with 100 ml of fresh sporulation broth added to each. 10001 (36 mg) was added to one of the two S. griseolus cultures to induce cytochrome P450SU1. […]

[2] = tested on: S. lividans pCAO200SU1#12; test: as above; type: in vitro ADME, Streptomyces lividans; conditions: substrate 10010
Method: as §1, with “spectroscopy. […]” for “spectroscopy.”
S. lividans transformed respectively with pCAO200SU1-FeS-B#9, pCAO200SU#112and pCAO200 were cultured for 36 hours in 400 ml of YEME broth at 30° C. S. griseolus ATCC 11796 was similarly cultured in 400 ml of sporulation broth. Six hours before harvesting the cells, 150 ml of fresh YEME broth was added to the S. lividans cells, and the S. griseolus cells were split into two 200 ml cultures with 100 ml of fresh sporulation broth added to each. 10001 (36 mg) was added to one of the two S. griseolus cultures to induce cytochrome P450SU1. The cells were prepared as described above in Example 5 and the concentrations of the sulfonylurea compound 10006 and its metabolites 10007, 10008 or 10009 were determined.

S. lividans pCAO200 = test: as above; type: in vitro ADME, Streptomyces lividans; conditions: substrate 10010
[3] = tested on: leaves of transformed tobacco; test: Metabolism of 10015 to 10014 in excised tobacco leaves (Example 20); type: in vitro ADME, Nicotiana tabacum
Method: Plants were grown from tobacco seed produced by self-pollinated transformed plants in Metro-Mix® 350 under 16 hour light (light intensity of 400 μEinsteins per second per square meter at pot level, 22° C. and 80% relative humidity) followed by 8 hours of dark (18° C. and 70 to 80% relative humidity) and watered three times daily with half strength Hoagland's solution. The presence of the cytochrome P450 protein in individual plants was confirmed by Western blot analysis before testing for sulfonylurea metabolism.
During growth, the tobacco plants produced leaves attached to the main stalk, none of which were of the same age or size. Removal of leaves attached to the main stalk of each plant forced the growth of lateral shoots which in turn produced the many leaves of similar size and age needed for the experiments. The leaves were excised under water with a scalpel. These leaves were transferred to cups with the uptake solution (20 ppm sulfonylurea in 1 mM potassium phosphate buffer, pH 7.0) and allowed to take up the solution through the cut leaf base for 2 hours in the light (200 μEinsteins per second per sq. meter) at 22° C. and 86% relative humidity. At the end of the uptake period, sample leaves were either frozen in liquid nitrogen and stored at -20° C. (designated '0 hour post-uptake samples') or transferred to cups with phosphate buffer alone for an additional 5 hours of incubation in the light before freezing (designated 5 hour post-uptake samples'). In the 10001 experiments some leaves were incubated for 21 hours post-uptake under continuous light (200 μEinsteins per second per square meter, 22° C., and 63% relative humidity).
Individual leaves were extracted with 30 ml acetone/water (80%/20% by volume) for 1 minute in a Sorvall® Omni-Mixer. The brei was centrifuged to remove the tissue debris. Acetone in the supernatant was removed under a stream of nitrogen. The resulting aqueous extract was acidified to pH 2 to 3 with sulfuric acid and then extracted three times with methylene chloride. The combined methylene chloride extracts were reduced to dryness by rotary evaporation at 30° to 40° C. The dry residue was dissolved in acetone for transfer to a vial. Once transferred the acetone was removed by evaporation under a stream of nitrogen. Before HPLC analysis the dry sample was redissolved in 1.0 ml of acetonitrile/water (25%/75%). HPLC separations were carried out on a Zorbax® ODS column (4.6 mm×250 man) at 45° C. with a flow rate of 1.4 ml per minute. […] 10015 and its metabolites were detected at 254 nm while ^14 C-10001 and its metabolites were detected with a Radiomatic Flo-One® detector. A diode array detector was used in separate experiments to obtain the absorbance spectra of the 10015 metabolite and an 10014 standard in the HPLC analysis of several extracts (HPLC method is described in Romesser et al., Biochem. Biophys. Res. Comm., 140:650-659 (1986)). Comparison of the metabolite absorbance spectrum with that of the 10014 confirmed the metabolite's identity.

SMILES: COC(=O)c1ccccc1S(=O)(=O)NC(=O)Nc1nc(C)cc(C(=O)O)n1 [compound 10012, N-[(4-carboxy-6-methylpyrimidin-2yl)aminocarbonyl]-2-methoxycarbonylbenzenesulfonamide]
concentration in supernatant ([1]; 2 h): 2 µM | concentration in supernatant ([1]; 4 h): 12 µM | concentration in supernatant ([1]; 6 h): 20 µM | concentration in supernatant ([2]; 2 h): 0 nM | concentration in supernatant ([2]; 4 h): 0 nM | concentration in supernatant ([2]; 6 h): 0 nM | concentration in supernatant (S. lividans pCAO200; 2 h): 0 nM | concentration in supernatant (S. lividans pCAO200; 4 h): 0 nM | concentration in supernatant (S. lividans pCAO200; 6 h): 0 nM

10014 levels ([3]; AGS112 (control, no P450SU1), 0 hour post-uptake): 0 μg/leaf | 10014 levels ([3]; AGS112 (control, no P450SU1), 5 hour post-uptake): 0 μg/leaf | 10014 levels ([3]; Cab-SU131.5 (chloroplast directed), 0 hour post-uptake): 1.3 μg/leaf | 10014 levels ([3]; Cab-SU131.5 (chloroplast directed), 5 hour post-uptake): 2.9 μg/leaf | 10014 levels ([3]; SSU-SU111.5 (chloroplast directed), 0 hour post-uptake): 2.1 μg/leaf | 10014 levels ([3]; SSU-SU111.5 (chloroplast directed), 5 hour post-uptake): 1.8 μg/leaf | 10014 levels ([3]; SSU-SU121.3 (chloroplast directed), 0 hour post-uptake): 1.2 μg/leaf | 10014 levels ([3]; SSU-SU121.3 (chloroplast directed), 5 hour post-uptake): 1.7 μg/leaf | 10014 levels ([3]; SU18.15 (cytoplasm directed), 0 hour post-uptake): 0 μg/leaf | 10014 levels ([3]; SU18.15 (cytoplasm directed), 5 hour post-uptake): 0 μg/leaf | 10014 levels ([3]; SU18.8 (cytoplasm directed), 0 hour post-uptake): 0 μg/leaf | 10014 levels ([3]; SU18.8 (cytoplasm directed), 5 hour post-uptake): 0 μg/leaf | 10014 levels ([3]; W38, 20 ppm 10015 uptake 2 h, 0 hour post-uptake): 0 μg/leaf | 10014 levels ([3]; W38, 20 ppm 10015 uptake 2 h, 5 hour post-uptake): 0 μg/leaf
SMILES: COc1cc(OC)nc(NC(=O)NS(=O)(=O)c2cccc3c2S(=O)(=O)NC3)n1 [compound 10014, 2,3-dihydro-N-[(4,6-dimethoxypyrimidin-yl)aminocarbonyl]-1,2-benzisothiazol-7-sulfonamide-1,1-dioxide]
